Measurements: patent publication EP2012793B1, “USE OF A TRICYCLIC COMPOUND FOR PREPARING A MEDICAMENT FOR TREATING SKELETAL MUSCLE DEGENERATION OF GENETIC ORIGIN” (Association Française contre les Myopathies, priority 2006, dated 2007)
Counter-ions that a name gives are not always drawn.

Assays:
[1] = system: souche de nématode dépourvue de dystrophine; assay: Test on dystrophin-deficient nematode strain (model of degenerative myopathy): paralysis phenotype and cytological count of degenerating muscle cells; assay type: in vivo, Caenorhabditis elegans; settings: for Diminution de la dégénérescence en %: untreated = 0; for Pourcentage d'animaux paralysés à J7: untreated = 100
Experimental: Les composés ont été testés sur une souche de nématode dépourvue de dystrophine (Gieseler et al., Current Biology, 2000, vol. 10, p1092-1097) et (Ségalat, Neuromuscular Disorders, 2002, Suppl: S105-9). Cette souche est utilisée comme modèle de myopathie dégénérative. Dans cette souche, jusqu'à 30% des cellules musculaires servant à la locomotion (muscles longitudinaux) dégénèrent à l'état adulte (7 jours à 15°C), ce qui se traduit par une paralysie progressive des animaux.
Les composés sont administrés par mélange avec la gélose sur laquelle sont cultivés les animaux. Ils pénètrent par diffusion à travers la cuticule des animaux.
L'effet des composés sur la dégénérescence musculaire est évalué par 1) l'observation du phénotype des animaux (paralysie), et 2) par l'examen cytologique de la. dégénérescence musculaire au moyen de marqueurs musculaires : rodamine-phalloidine et anticorps anti-myosine. Cet examen permet de compter le nombre de cellules musculaires en dégénérescence ou mortes (Gieseler et al. , 2000, supra).

[2] = system: souris mdx (génotype C57/BL6 mdx5cv); assay: mdx mouse, histological tests (fibre size dispersion, diaphragm degeneration/necrosis, centronucleated fibres); assay type: in vivo
From the text: (§1) Les tests effectués chez la souris sont de plusieurs types : histologiques, fonctionnels sur l'animal entier, et fonctionnels sur muscles disséqués. Les tests sont effectués sur la souris mdx (génotype C57/BL6 mdx5cv), modèle murin de myopathie dégénérative. Ces tests sont notamment détaillés dans les publications suivantes auxquelles on pourra se référer : • De Luca A, et al. Am. J. Pathol. 2005; 166(2), 477-89. • Divet A, etal. Pflugers Arch. 2002 Aug; 444(5), 634-43. Epub 2002 Jul 10. • Rafael JA, et al. Mamm Genome. 2000 Sep; 11(9), 725-8.
(§2) Les composés sont administrés oralement aux souris dans leur nourriture. Les souris sont traitées de l'âge de 2 semaines à 6 semaines. Elles sont testées à 6 semaines.

[3] = system: souris mdx (génotype C57/BL6 mdx5cv); settings: treated from 2 to 6 weeks of age
From the text: as §1, §2

[4] = system: protéolyse du muscle de C. elegans; assay: C. elegans muscle proteolysis model representative of cachexia (protocol of Zdinak et al.); assay type: in vivo; settings: remaining proteolysis relative to control; strongly reduced
[5] = 0,1 mg/ml in culture agar (0,2-0,3 mM), after 7 days of culture at 15°C
[6] = concentration efficace 0,1 mg/ml in culture agar

CN(C)CC/C=C1/c2ccccc2Sc2ccc(Cl)cc21 [Chloroprothixene, chlorprothixene]
Diminution de la dégénérescence en % ([1]; concentration efficace 0,02 mg/ml in culture agar): 58%

CN(C)CCC=C1c2ccccc2C=Cc2ccccc21 [Cyclobenzaprine, cyclobenzaprine]
Réduction de l'indice de dégénérescence du diaphragme (fibres nécrotiques et fibres centronucléées) ([2]; 3mg/jour/kg oral in food, treated from 2 to 6 weeks of age): 21%
Réduction de la dispersion de taille des fibres (marqueur de dégénérescence) ([2]; 3mg/jour/kg oral in food, treated from 2 to 6 weeks of age, versus untreated animals): 52%
Diminution de la dégénérescence en % ([1]; concentration efficace 0,05 mg/ml in culture agar): 63%
Augmentation de la force exercée dans test d'agrippement ([3]; 3mg/jour/kg oral in food): 24%
Augmentation du score le test d'agrippement ([3]; 3mg/jour/kg oral in food): 40%

CNCCCN1c2ccccc2CCc2ccccc21 [Desipramine chlorhydrate, désipramine]
Diminution de la dégénérescence en % [1, 5]: 58%
Pourcentage d'animaux paralysés à J7 [1, 5]: 58%

CN(C)CCCN1c2ccccc2CCc2ccccc21 [Imipramine chlorhydrate, imipramine]
Diminution de la dégénérescence en % [1, 5]: 37%
Pourcentage d'animaux paralysés à J7 [1, 5]: 65%
protéolyse [4]: 20 % de la protéolyse du témoin
Augmentation de la tension développée par le muscle EDL sur animaux vivants ([3]; 40mg/jour/kg oral in food): 20%
Augmentation du score avec le test d'agrippement ([3]; 40mg/jour/kg oral in food): 48%
Augmentation de la tension maximale développée par le muscle isolé ([3]; 40mg/jour/kg oral in food, triton-skinned fibre protocol): 50%

COc1ccc2c(c1)N(C[C@H](C)CN(C)C)c1ccccc1S2 [Methotrimeprazine, méthotriméprazine]
Diminution de la dégénérescence en % [1, 6]: 70%

CC(CN(C)C)CN1c2ccccc2Sc2ccccc21 (stereo not shown) [Trimeprazine, triméprazine]
Diminution de la dégénérescence en % [1, 6]: 65%

CC(CN(C)C)CN1c2ccccc2CCc2ccccc21 (stereo not shown) [Trimipramine maleate, trimipramine]
nécrose du diaphragme ([2]; 15 mg/kg/jour, test of Raymackers et al., p<5%): réduit la nécrose du diaphragme
nombre de fibres centronucléées ([2]; 15 mg/kg/jour, test of Shavlakadze et al., p<0,1%): réduit

NCCc1c[nH]c2ccc(O)cc12 [sérotonine]
dégénérescence musculaire ([1]; result in words, concentration not given): diminue également la dégénérescence musculaire
